Like-named read-outs stand apart in the source and are kept apart here. Marks after values point to notes of the source that are not given here.
What was measured:
[1] = system: AAMU-Ab; assay: Competitive antigen ELISA, cross-reactivity of AAMU-Ab; assay type: binding, rabbit; settings: for % Cross-Reaction AAMU-Ab: competitive antigen ELISA, 0 = absence of inhibition or inhibition no higher than 40% at 5 × 10^−3 M
Protocol: (§1) Buffers and water without additives are filtered through millipore filters and kept for 1 week. BSA, antibodies, Tween™ 20 and horse radish peroxidase conjugates are added to these buffers and water just prior to use. Urine samples are usually collected 4 hours after drinking a cup of coffee (instant or brewed with approximately 100 mg of caffeine per cup) and stored at −80° C. The urine samples are diluted 10 times with sodium phosphate buffer (620 mosm, pH 7.50) and are subsequently diluted with water to give concentrations of AAMU and 1X no higher than 3×10^−6 M in the ELISA. All the pipettings are done with an eight-channel pipette, except those of the antibody and sample solutions. Starting with the last well, 100 μL of a carbonate buffer (100 mM, pH 9.6) containing 2.5 μg mL-^1 antibodies are added to each well. After 90 min. at room temperature, the wells are washed three times with […] of TPB: isotonic sodium phosphate buffer (310 mosm, pH 7.50) containing 0.05% Tween™ 20.
(§2) After the initial wash, unoccupied sites are blocked by incubation for 90 min. at room temperature with 100 μL TBP containing 3% BSA. The wells are washed four times with 100 μL TPB. […] The microplate is gently shaken with an orbital shaker at room temperature for 3-4 hours. The wells are washed three times with 100 μL TPB containing 1% BSA and three times with water containing 0.05% Tween™ 20. To the washed plate is added 150 μL of a substrate buffer composed of citric acid (25 mM) and sodium phosphate dibasic buffer (50 mM, pH 5.0) containing 0.06% hydrogen peroxide and 0.04% o-phenylenediamine hydrochloride.
(§3) Buffers and water without additives were filtered through millipore filters and kept for 1 week. BSA, antibodies, Tween™ 20 and horse radish peroxidase conjugates were added to these buffers and water just prior to use. Urine samples were usually collected 4 hours after drinking a cup of coffee (instant or brewed with approximately 100 mg of caffeine per cup) and stored at −80° C. They were diluted 10 times with sodium phosphate buffer (620 mosm, pH 7.50) and were subsequently diluted with water to give concentrations of AAMU and 1X no higher than 3×10^−6 M in the ELISA. All the pipettings were done with an eight-channel pipette, except those of the antibody and sample solutions. Starting with the last well, 100 μL of a carbonate buffer (100 mM, pH 9.6) containing 2.5 μg mL-^1 antibodies was pipetted. After 90 min. at room temperature, the wells were washed three times with 100 μL of TPB: isotonic sodium phosphate buffer (310 mosm, pH 7.50) containing 0.05% Tween™ 20.
(§4) After the initial wash, unoccupied sites were blocked by incubation for 90 min. at room temperature with 100 μL TBP containing 3% BSA. The wells were washed four times with 100 μL TPB. […] The microplate was gently shaken with an orbital shaker at room temperature for 3-4 hours. The wells were washed three times with 100 μL with TPB containing 1% BSA and three times with water containing 0.05% Tween™ 20. To the washed plate was added 150 μL of a substrate buffer composed of citric acid (25 mM) and sodium phosphate dibasic buffer (50 mM, pH 5.0) containing 0.06% hydrogen peroxide and 0.04% o-phenylenediamine hydrochloride. After 20 min. at room temperature with shaking, the reaction was stopped with 50 μL of 2.5 N HCl.
(§5) The cross reactivities of AAMU-Ab and 1X-Ab were tested using a wide variety of caffeine metabolites and structural analogs (Table 2 below).

[2] = system: 1X-Ab; assay: Competitive antigen ELISA, cross-reactivity of 1X-Ab; assay type: binding, rabbit; settings: for % Cross-Reaction 1X-Ab: competitive antigen ELISA, 0 = absence of inhibition or inhibition no higher than 40% at 5 × 10^−3 M
Protocol: as §1, §2, §3, §4, §5

[3] = cited from earlier work
[4] = cited from earlier work; remark: listed apart in the source
[5] = cited from earlier work; remark: listed apart in the source

Cn1c(=O)c2c(ncn2C)n(C)c1=O [1,3,7-Trimethyl Xanthine (Caffeine), 1,3,7-Trimethyl Xanthine]
% Cross-Reaction AAMU-Ab [1]: 0% | % Cross-Reaction 1X-Ab [2]: 0%

Cn1c(=O)c2[nH]cnc2n(C)c1=O [1,3-Dimethyl Xanthine (Theophylline), 1,3-Dimethyl Xanthine]
% Cross-Reaction AAMU-Ab [1]: 0% | % Cross-Reaction 1X-Ab [2]: 0.2%

Cn1c(=O)[nH]c2ncn(C)c2c1=O [1,7-Dimethyl Xanthine (Paraxanthine), 1,7-Dimethyl Xanthine]
% Cross-Reaction AAMU-Ab [1]: 0% | % Cross-Reaction 1X-Ab [2]: 0.5%

Cn1c(=O)[nH]c2[nH]c(=O)n(C)c2c1=O [1,7-Dimethyluric acid]
% Cross-Reaction AAMU-Ab [1]: 0% | % Cross-Reaction 1X-Ab [2]: 0%

Cn1c(=O)[nH]c2nc[nH]c2c1=O [1-Methyl Xanthine (1X), 1-Methyl Xanthine]
% Cross-Reaction AAMU-Ab [1]: 0% | % Cross-Reaction 1X-Ab [2]: 100% | IC50 ([2]; read-out: concentration required for 50% inhibition in the competitive antigen ELISA, 1X-Ab): 10 µM

Cn1c(=O)[nH]c2[nH]c(=O)[nH]c2c1=O [1-Methyluric acid]
% Cross-Reaction AAMU-Ab [1]: 0% | % Cross-Reaction 1X-Ab [2]: 11%

Cn1cnc2c1c(=O)[nH]c(=O)n2C [3,7-Dimethyl Xanthine (Theobromine), 3,7-Dimethyl Xanthine]
% Cross-Reaction AAMU-Ab [1]: 0% | % Cross-Reaction 1X-Ab [2]: 0%

Cn1c(=O)[nH]c(=O)c2[nH]cnc21 [3-Methyl Xanthine]
% Cross-Reaction AAMU-Ab [1]: 0% | % Cross-Reaction 1X-Ab [2]: 0%

CC(=O)Nc1c(N)n(C)c(=O)n(C)c1=O [5-Acetamino-6-amino-1,3-dimethyluracil]
% Cross-Reaction AAMU-Ab [1]: 0% | % Cross-Reaction 1X-Ab [2]: 0%

CC(=O)Nc1c(N)n(C)c(=O)[nH]c1=O [5-Acetamino-6-amino-1-methyluracil]
% Cross-Reaction AAMU-Ab [1]: 100% | IC50 ([1]; read-out: concentration required for 50% inhibition in the competitive antigen ELISA, AAMU-Ab): 1500 nM | % Cross-Reaction 1X-Ab [2]: 0%

CC(=O)Nc1c(N)[nH]c(=O)[nH]c1=O [5-Acetamino-6-amino-uracil]
% Cross-Reaction AAMU-Ab [1]: 0.6% | % Cross-Reaction 1X-Ab [2]: 0%

Cn1cnc2[nH]c(=O)[nH]c(=O)c21 [7-Methyl Xanthine]
% Cross-Reaction AAMU-Ab [1]: 0% | % Cross-Reaction 1X-Ab [2]: 0%

Cc1nc2[nH]c(=O)[nH]c(=O)c2[nH]1 [8-Methyl Xanthine]
% Cross-Reaction AAMU-Ab [1]: 0% | % Cross-Reaction 1X-Ab [2]: 0%

COc1ccc2c(c1)[C@]13CCCC[C@@H]1[C@H](C2)N(C)CC3 [Dextromethorphan]
mean performance ±SE ([3]; EMs (extensive metabolizers)): 95±0.5% | mean performance ±SE ([3]; PMs (poor metabolizers)): 86±6%

Nc1nc2nc[nH]c2c(=O)[nH]1 [Guanine]
% Cross-Reaction AAMU-Ab [1]: 0% | % Cross-Reaction 1X-Ab [2]: 0%

O=c1[nH]cnc2nc[nH]c12 [Hypoxanthine]
% Cross-Reaction AAMU-Ab [1]: 0% | % Cross-Reaction 1X-Ab [2]: 0%

NC(=O)c1cccnc1 [Nicotinamide]
effect on lipoproteins ([4]; doses similar to those of nicotinic acid): does not have a significant effect on lipoproteins

O=c1cc[nH]c(=O)[nH]1 [Uracil]
% Cross-Reaction AAMU-Ab [1]: 0% | % Cross-Reaction 1X-Ab [2]: 0%

O=c1[nH]c(=O)c2[nH]c(=O)[nH]c2[nH]1 [Uric acid]
% Cross-Reaction AAMU-Ab [1]: 0% | % Cross-Reaction 1X-Ab [2]: 0%

O=c1[nH]c(=O)c2[nH]cnc2[nH]1 [Xanthine]
% Cross-Reaction AAMU-Ab [1]: 0^a % | % Cross-Reaction 1X-Ab [2]: 0%

Nc1ccc(S(=O)(=O)c2ccc(N)cc2)cc1 [dapsone]
adverse reactions to dapsone ([5]; fast acetylators): 17% | adverse reactions to dapsone ([5]; slow acetylators): 46%

O=C(O)c1cccnc1 [niacin, nicotinic acid]
LDL cholesterol reduction ([4]; 1000 to 1500 mg per day): about 15% | reduction of triglyceride levels ([4]; 1000 to 1500 mg per day): up to 30% | LDL cholesterol-lowering effect ([4]; 2000 to 4000 mg per day): ~25% | increase in HDL cholesterol level ([4]; 2000 to 4000 mg per day): up to 30% | reduction of triglyceride levels ([4]; 2000 to 4000 mg per day): up to 50% | effect on lipoproteins ([4]; low dosages (<500 mg per day)): little predictable effect
